The target in data set [1] is T1, Mitogen-activated protein kinase 3 (Homo sapiens, UniProt P27361). As to the kind of experiment: Inhibition of ERK1 (unknown origin) after 45 mins by IMAP assay.
The target in data set [2] is T1, Mitogen-activated protein kinase 3. Briefly: Competitive inhibition of ERK1 (unknown origin) in presence of ATP.
Data set [3] deals with Homo sapiens. As to the kind of experiment: In vivo inhibition of B-RAF in naive patient relative to control. The class given is functional.
In data set [4] the test system is Homo sapiens. Briefly: In vivo inhibition of B-RAF in inhibitor-pretreated patient relative to control. The class given is functional.
The subject of data set [5] is Homo sapiens. Briefly: Toxicity in patient administered daily. Type of data set: organism-based. The note with it: in vivo.
Data set [6] concerns the target Serine/threonine-protein kinase B-raf (Homo sapiens) (UniProt P15056). Briefly: Binding affinity to B-RAF (unknown origin) assessed as dissociation half life.
Data set [7] in a line: Effective half life in patient. Type of data set: ADME, organism-based. The settings on record: human, in vivo; read-out: t1/2eff.
Data set [8] in a line: Plasma half life in po dosed Sprague-Dawley rat. Type of data set: ADME, organism-based.

The structures appear in SMILES notation.

As usually defined, the IC50 is the point on the concentration scale where inhibition reaches its midpoint.

T1 sequence (P27361 whole entry): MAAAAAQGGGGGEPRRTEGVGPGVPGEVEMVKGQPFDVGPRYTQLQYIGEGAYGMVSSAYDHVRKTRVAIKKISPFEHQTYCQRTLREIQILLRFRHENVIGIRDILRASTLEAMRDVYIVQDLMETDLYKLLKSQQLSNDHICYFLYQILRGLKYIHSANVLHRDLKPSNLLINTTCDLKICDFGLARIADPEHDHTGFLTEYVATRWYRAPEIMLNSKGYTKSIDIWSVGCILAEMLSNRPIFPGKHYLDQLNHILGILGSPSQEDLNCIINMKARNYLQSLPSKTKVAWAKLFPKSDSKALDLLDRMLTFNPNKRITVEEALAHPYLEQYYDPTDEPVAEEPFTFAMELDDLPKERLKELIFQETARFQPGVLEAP
Sequence of Serine/threonine-protein kinase B-raf (Homo sapiens) (P15056 whole entry): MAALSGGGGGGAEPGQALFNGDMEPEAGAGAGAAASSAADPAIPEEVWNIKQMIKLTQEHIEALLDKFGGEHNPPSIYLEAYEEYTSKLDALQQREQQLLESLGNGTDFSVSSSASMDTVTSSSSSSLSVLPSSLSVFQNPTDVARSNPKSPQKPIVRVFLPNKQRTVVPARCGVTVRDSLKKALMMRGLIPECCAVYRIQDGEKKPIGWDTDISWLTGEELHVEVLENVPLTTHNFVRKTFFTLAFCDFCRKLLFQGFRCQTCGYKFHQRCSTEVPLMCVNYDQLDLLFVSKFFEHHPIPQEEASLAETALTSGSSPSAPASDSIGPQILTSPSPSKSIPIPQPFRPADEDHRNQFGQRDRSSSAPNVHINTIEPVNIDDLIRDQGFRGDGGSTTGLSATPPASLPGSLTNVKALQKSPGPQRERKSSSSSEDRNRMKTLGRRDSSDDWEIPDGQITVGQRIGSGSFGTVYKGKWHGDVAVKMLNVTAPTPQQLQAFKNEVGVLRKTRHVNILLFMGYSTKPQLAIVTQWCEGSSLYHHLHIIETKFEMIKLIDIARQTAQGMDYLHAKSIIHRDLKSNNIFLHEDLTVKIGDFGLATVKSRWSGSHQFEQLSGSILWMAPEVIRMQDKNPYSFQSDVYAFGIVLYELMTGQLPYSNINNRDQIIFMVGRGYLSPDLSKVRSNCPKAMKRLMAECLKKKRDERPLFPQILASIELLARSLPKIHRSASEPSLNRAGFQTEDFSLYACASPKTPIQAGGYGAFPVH

In the case of `O=C(Nc1ccc2[nH]nc(-c3ccncc3)c2c1)[C@@H]1CCN(CC(=O)N2CCN(c3ccc(-c4ncccn4)cc3)CC2)C1`, the IC50 in data set [1] worked out at 4 nM.
With `CC(C)Nc1cc(-c2c[nH]c(C(=O)N[C@H](CO)c3cccc(Cl)c3)c2)c(Cl)cn1`, the INH in data set [2] was found to be 300 pM.
Turning to `Cn1cnc2c(F)c(Nc3ccc(Br)cc3F)c(C(=O)NOCCO)cc21` [BINIMETINIB], the “inhibition (INH)” value in the data set with Homo sapiens [3] is 88%; in the data set on Homo sapiens [4] it was 18%.
On to `COC(=O)N[C@@H](C)CNc1nccc(-c2cn(C(C)C)nc2-c2cc(Cl)cc(NS(C)(=O)=O)c2F)n1` [ENCORAFENIB], for which, in the data set on Homo sapiens [5], the MTD is on record as 600 mg. The “inhibition (INH)” value was 58% with Homo sapiens [3] and 11% in the data set on Homo sapiens [4]. In data set [6], the T1/2 was more than 24 h.
`CC(=O)Nc1cccc(-n2c(=O)n(C3CC3)c(=O)c3c(Nc4ccc(I)cc4F)n(C)c(=O)c(C)c32)c1` [TRAMETINIB]: the figures for the half-life in data set [7] and in data set [8] were more than 40 h and more than 30 h, respectively.
